Measured values reported in patent publication US12263248B2, “Compounds and compositions for intracellular delivery of therapeutic agents” (ModernaTX, Inc., priority 2018, dated 2025).

Experiments:
[1] = Apparent (surface) pKa of the LNP formulation (TNS assay); format: physicochemical; details: Table 1A
Outline: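 LNP (0.04 mg/mL mRNA) mixed with TNS reagent in 21 buffers spanning about pH 3-12, in triplicate; fluorescence plotted against pH as sigmoidal curve. Apparent pKa taken as […] curve inflection point; validated in 1× PBS and 20 mM Tris w/8% sucrose.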

[2] = system: luciferase (Luc) mRNA; assay: Luc expression in liver, lung, spleen and femur 6 hours after intravenous administration; format: in vivo; details: mice, 0.5 mpk; for Total Flux Femur / Total Flux Liver / Total Flux Lung / Total Flux Spleen: intravenous
Outline: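 LNP-formulated mRNA given IV to mice (n=3) at 0.5 mpk; at 6 h, bioluminescence imaged ex vivo 15 min after IP D-luciferin (15 mg/mL, 200 μL), organs imaged within 25 min. Values are total flux by region of interest.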

[3] = system: sC5b-9; assay: Complement activation in vitro (sC5b-9 levels); format: cell-based; details: human cells contacted in vitro
Procedure: Complement activation assists in the clearance of pathogens from an organism. As it is undesirable that a subject's body recognize a nanoparticle composition as a foreign invader, low complement system activation upon administration of such a composition is preferred. The complex sC5b-9 is a marker for the activation of the complement system. Thus, human cells were contacted in vitro with nanoparticle compositions according to Table 1A and were evaluated for sC5b-9 levels.

[4] = system: IL-6, IP-10; assay: Cytokine induction in mice upon intravenous administration; format: in vivo; parameters: Cytokine induction IL-6 / Cytokine induction IP-10: unit not given here; details: 0.5 mpk, 6 hours; for Cytokine induction IL-6 / Cytokine induction IP-10: intravenous
Outline: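 Mice dosed intravenously with nanoparticle compositions at 0.5 mpk; serum cytokine concentrations (IL-6, IP-10) measured at 6 hours. MC3 formulation and PBS controls run alongside.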

[5] = system: luciferase (Luc) mRNA; assay: Luc expression, whole body bioluminescence after intravenous administration to mice; format: in vivo; details: mice, i.v., 0.5 mg/kg; for Total Flux 3 hours / Total Flux 6 hours / Total Flux 24 hours: Luc mRNA; for flux at all timepoints measured: 3, 6 and 24 hour, in words
Outline: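 Luc mRNA nanoparticle formulations given intravenously to mice (n=6) at 0.5 mg/kg; whole-body bioluminescence imaged at 3, 6 and 24 h. CD-1 mice received IP D-luciferin (200 μL of 15 mg/mL) 15 min before imaging; total flux quantified by region of interest.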

[6] = Encapsulation efficiency of RNA (QUANT-IT RIBOGREEN RNA assay); format: physicochemical; details: for EE (%): Table 1A
Outline: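 RiboGreen fluorescence (ex ~480, em ~520 nm) compared between intact samples and Triton X-100-lysed samples after 15 min at 37 °C in TE buffer, pH 7.5. Percent free RNA is the blank-corrected intact/disrupted ratio.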

[7] = Particle size and polydispersity index of nanoparticle compositions (Zetasizer Nano ZS); format: physicochemical; details: for Size (nm): lipid:DSPC:cholesterol:PEG-DMG 50:10:38.5:1.5 mol %
Outline: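 In 1×PBS, the compositions were sized on a Zetasizer Nano ZS, which also reported their polydispersity index.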

[8] = system: human hepatocytes; assay: Metabolite profiling of Compound 18 with human hepatocytes; format: in vitro ADME; parameters: key to Detection in incubation: +: Detected; ND: Not detected; details: for Detection in incubation: Compound 18 (10 μM), human hepatocytes
Procedure: The results of metabolic profiling and characterization for compound 18 incubated with human hepatocytes or human plasma are summarized in Tables 41 and 42, respectively.

[9] = Lipid clearance from mouse tissues after weekly dosing; format: in vivo; details: 0.25 mg/kg mRNA on days 1, 8, and 15
Procedure: Repeat dosing of mRNA in an MC3-based LNP for a therapeutic indication would be expected to lead to accumulation of MC3 in tissues, based on the measured half-life. Therefore it was investigated whether the favorable single dose pharmacokinetics of compound 18 were maintained with weekly dosing. Clearance of MC3 and compound 18 from multiple mouse tissues was measured after dosing 0.05 mg/kg mRNA on day 1, 8 and 15 (FIG. 30A). Following dosing with MC3 LNPs, lipid was detected in liver, spleen, plasma, kidney, heart and lung, with liver and spleen containing the largest concentrations (FIG. 30A, for full panel of tissues see FIG. 35A). […] Compound 18 was also detected in plasma, lung, and kidney, but not in heart (FIG. 35A).
In vitro metabolite identification studies using compound 18 were also performed. […] The disappearance of parent compound 18 and the primary metabolite, compound 166, from mouse liver tissue was measured after dosing 0.25 mg/kg mRNA on days 1, 8, and 15.

[10] = Metabolite identification of Compound 18 in human plasma; format: in vitro ADME; parameters: key to Detection in incubation: +: Detected; ND: Not detected; details: for Detection in incubation: Compound 18 (10 μM), human plasma
Procedure: Metabolite Identification: Compound 18 (10 μM) was incubated with human plasma (29.0 mg protein/incubation) in incubation mixtures (200 μL final incubation volume) that consisted of 50/50v/v neat plasma (undiluted)/substrate solution in 50 mM phosphate buffer, pH 7.4). The plasma was obtained from male and female donors and contained K2EDTA anticoagulant. Reactions were started by addition of the substrate solution to human plasma and were stopped at four designated time points (0, 30, 60 and 90 min) by the addition of 600 μL of stop reagent (acetonitrile). Stopped incubation samples were centrifuged (e.g., 10,000×g for 10 min at 10° C.) and the supernatant fractions were analyzed by LC-MS/MS to characterize the metabolites formed from compound 18. Additional incubations were performed with the positive control procaine (5 μM) to establish competency of the test system. Samples were analyzed by LC-MS/MS.

[11] = N/P 3, i.v. bolus at 5 mpk, Sprague Dawley rats; 5 mg/kg
Procedure: Sprague Dawley rats were administered with nanoparticles of the disclosure via i.v. bolus at 5 mpk. The nanoparticle contained two mRNA encoding a broadly neutralizing influenza antibody in a 2:1 ratio.

[12] = system: hEPO mRNA; assay: Pretreatment study in Cynomolgus monkeys (standard MC3 formulation, hEPO mRNA); format: in vivo; details: MC3 formulation once weekly for four weeks
Procedure: The effects of pretreatment to non-human primates were evaluated using a standard MC3 formulation including an mRNA encoding hEPO. Male monkeys were administered the nanoparticle composition once weekly for four weeks at a dose rate of 5 ml/kg/h and were pretreated with either methotrexate or dexamethasone.
As shown, in the absence of any pretreatment, maximal expression levels decreased nearly 70% over the course of the study.

Structure (SMILES)	pKa [1]	Flux in the spleen ([2]; i.v., in words)	Total Flux Femur [2]	Total Flux Liver [2]	Total Flux Lung [2]	Total Flux Spleen [2]	Fold increase in sC5b-9 levels versus saline [3]	Cytokine induction IL-6 [4]	Cytokine induction IP-10 [4]	Total Flux 3 hours [5]	Total Flux 6 hours [5]	Total Flux 24 hours [5]	flux at all timepoints measured [5]	EE (%) [6] [%]	PDI ([7]; Table 1A)	Size (nm) ([7]; Table 1A)	also measured
CCCCCCCCCOC(=O)CCCCCCCN(CCCCCCCC(=O)OC(CCCCCCCC)CCCCCCCC)CCOC(C)=O [Compound 9, Heptadecan-9-yl 8-((2-acetoxyethyl)(8-(nonyloxy)-8-oxooctyl)amino) octanoate]	4.87	lowest	2.57E+04	4.30E+05	2.56E+04	5.51E+04	0.92	317.45	366.53	1.43E+08	3.46E+06	1.01E+06	significantly lower flux	75.7	0.12	68.5	sC5b-9 levels relative to saline ([3]; in words): slightly decrease; IL-6 induction ([4]; i.v., in words): highest
CCCCCC/C=C\COC(=O)CCCCCCCN(CCO)CCCCCCCC(=O)OC/C=C\CCCCCC [Compound 139, Di((Z)-non-2-en-1-yl) 8,8′-((2-hydroxyethyl)azanediyl)dioctanoate]	7.04		5.12E+04	8.27E+05	5.26E+04	2.10E+06	0.73	23.57	153.36	3.50E+07	1.17E+07	5.89E+05		78.2	0.54	174.0	
CCCCCCCCCCCOC(=O)CCCCCN(CCO)CCCCCC(=O)OCCCCCCCCCCC [Compound 141, Diundecyl 6,6′-((2-hydroxyethyl)azanediyl)dihexanoate]	7.47	lowest	2.86E+04	1.59E+05	3.85E+04	6.29E+04	1.81	327.15	1072.04		1.21E+06	3.49E+05	significantly lower flux	94.1	0.99	91.3	Flux in the liver ([2]; i.v., in words): lowest
CCCCCCCCC(CCCCCCCC)OC(=O)CCCCCCCN(CCO)CCCCCCCC(=O)O [Compound 166, 8-((8-(Heptadecan-9-yloxy)-8-oxooctyl)(2-hydroxyethyl)amino)octanoic acid]																	Proposed biotransformation ([8]; Compound 18 (10 μM) with human hepatocytes (1 million cells/mL)): Ester hydrolysis; Detection in incubation ([8]; 60 min): +; Detection in incubation ([8]; 120 min): +; Detection in incubation ([8]; 240 min): +; disappearance from mouse liver tissue [9]: rapid clearance; Proposed biotransformation ([10]; Compound 18 (10 μM) with human plasma (29.0 mg protein/incubation)): Ester hydrolysis; Detection in incubation ([10]; 30 min): +; Detection in incubation ([10]; 60 min): +; Detection in incubation ([10]; 90 min): +
CCCCCCCCC(CC)OC(=O)CCCCCCCN(CCCCCCCC(=O)OC(CCCCCCCC)CCCCCCCC)CCCNc1c(NC)c(=O)c1=O (centres unmarked) [Compound 301, Heptadecan-9-yl 8-((3-((2-(methylamino)-3,4-dioxocyclobut-1-en-1-yl)amino)propyl)(8-oxo-8-(undecan-3-yloxy)octyl)amino)octanoate]																	Clinical Observations [11]: signs of decreased activity; % EE ([6]; N/P 3 (Table 43)): 86%; % EE ([6]; N/P 5.8 (Table 43)): 96%; Diameter ([7]; N/P 3 (Table 43)): 68 nm; PDI ([7]; N/P 3 (Table 43)): 0.09; Diameter ([7]; N/P 5.8 (Table 43)): 69 nm; PDI ([7]; N/P 5.8 (Table 43)): 0.24
CN(Cc1cnc2nc(N)nc(N)c2n1)c1ccc(C(=O)N[C@@H](CCC(=O)O)C(=O)O)cc1 [Methotrexate, methotrexate]																	effect of pretreatment on hEPO protein expression [12]: did not confer any particular beneficial effect
